Active and inactive are the calls of the source. The rule behind the calls is not given here.

Experiment [1] in a line: Binding affinity to oxyhemoglobin in phosphate buffer at pH 7.0 at room temperature over 24 hrs by spectrophotometry.
The nature of experiment [2]: Binding affinity to oxyhemoglobin in phosphate buffer at pH 7.0 at 37 degC over 24 hrs by spectrophotometry.
Experiment [3] can be described thus: Binding affinity to methemoglobin in phosphate buffer at pH 7.0 over 30 mins by spectrophotometry.
A short description of experiment [4]: Binding affinity to oxyhemoglobin in ammonium acetate buffer at pH 8.0 over 24 hrs by spectrophotometry.
A short description of experiment [5]: Binding affinity to methemoglobin in phosphate buffer at pH 5.0 over 30 mins by spectrophotometry.
A short description of experiment [6]: Binding affinity to hemin in sodium acetate buffer at pH 5.0.
Experiment [7] is described as follows: Binding affinity to heme in sodium acetate buffer at pH 5.0.
Experiment [8] is described as follows: Binding affinity to heme in ammonium acetate buffer at pH 5.0 at 40 uM in presence of ferrocyanide.

For the compound `C[C@H]1[C@H](OC(=O)CCC(=O)O)O[C@@H]2O[C@@]3(C)CC[C@H]4[C@H](C)CC[C@@H]1[C@@]24OO3`, the outcome in experiment [1], in experiment [2], in experiment [3], in experiment [4] and in experiment [5] was inactive.
Regarding `C[C@@H]1CC[C@H]2[C@@H](C)C(=O)O[C@@H]3O[C@@]4(C)CC[C@@H]1[C@]32OO4`, in experiment [6], the outcome was inactive. Further, in experiment [7], the Activity result is “Dose-dependent effect”. Moreover, the result in experiment [8] was Active.
